{
  "source": "patent US11952364B2",
  "about": "“TRK inhibitors useful as anticancer drugs” (TYLIGAND BIOSCIENCE (SHANGHAI) LIMITED, priority 2018, dated 2024)",
  "tested_on": "KM12 cells",
  "test": "Proliferation of KM12 cells (CellTiter-Glo)",
  "type": "cell-based, human",
  "settings": "Homo sapiens",
  "text": "KM12 is a human colon cancer cell line in which NTRK1 is highly expressed, and gene fusion occurs with TPM3 to form TPM3-NTRK1. • [Test method]: Promega's CellTiter-Glo® Luminescent Cell Viability Assay kit was used to evaluate the inhibitory activity of the compounds on the proliferation of KM12 cells. • [Instrument]: Spectramax M3 multifunctional microplate reader from Molecular Devices. • [Test materials]: KM12 cell line (ATCC, item number CRL-12496), 96-well transparent flat-bottomed black-walled cell culture plate (Corning, item number #3603), RPMI-1640 media (GE, cat #SH30027.01), Fetal Bovine Serum FBS (Thermo Fisher, cat #10099-141), CellTiter-Glo® Luminescent Cell Viability Assay Kit (Promega, cat #G7572), PBS (Solarbio, cat #P1020), Trypsin (Thermo Fisher, cat #25200072), DMSO (Sigma, cat #D2650). • [Experimental procedure]: When resuscitating KM12 cells, the freezing tube was quickly shaken in a 37° C. water bath to melt within 1 minute. The thawed cell suspension was mixed uniformly with RPMI1640 medium containing 10% FBS, centrifuged at 1000 rpm for 5 minutes, and the supernatant discarded. 5 mL of complete medium (RPMI1640 medium with 10% FBS) was taken to resuspend the cell pellets, charged into a cell culture flask with a bottom area of 25 cm^2, and incubated in a cell incubator at 37° C., 95% humidity and 5% CO2. Cells were allowed to passage when the cell confluence rate reached about 80%. For cell passage, the old medium was discarded, and the cells were washed twice with PBS, and 0.5 mL trypsin was added to digest the cells. Upon dispersing into single cells and exfoliating from the bottom of the cell culture flask, 4.5 mL of new complete medium was added to terminate the digestion. After pipetting the cell suspension evenly, 1/5 of the cell suspension was kept and added with 4 mL of new complete medium, and after pipetting evenly, the cell flask was placed in the cell incubator for further culturing. Cell plating was performed when the cell confluence rate reached about 80% again. For cell plating, 1/5 of the cell suspension was kept for further culturing as in the cell passage method, and the remaining 4/5 of the cell suspension was placed in a 15 mL centrifuge tube, detected for cell viability by Trypan blue exclusion method to ensure that cell viability was above 90%. A cell suspension with a density of 3.33×10^4 viable cells/mL was prepared with complete medium, and 90 μL of such cell suspension was added to a 96-well cell culture plate to obtain a cell density of 3000 viable cells/mL in the cell culture plate. A control group containing no cells, no compound and only complete medium (i.e. culture medium control) and a control group containing no compound but containing cells (i.e. cell control) were set. The cell plate was placed in a cell incubator overnight.\nThe 10 mM compound stock solution in DMSO was first serially diluted with DMSO at a dilution factor of 3.16 times, to obtain 9 concentrations, and the 10th concentration was set as DMSO control without compound. Then, PBS was used to dilute the DMSO solutions of compounds of different concentrations, at a dilution factor of 100 times, so that the DMSO concentration in the compound solution of each concentration was 1%. Finally, 10 μL of each of the above solutions was added to the corresponding cell culture plate, so that the initial compound concentration was 10 μM, with the remaining concentrations being successively diluted at a dilution factor of 3.16 times, and the DMSO content in the cell culture plate was 0.1%.\nThe cell plate was placed in a cell incubator and cultured for 72 hours. For endpoint detection, the CellTiter-Glo reagent was melted, and the cell plate was moved to room temperature to equilibrate for 30 minutes, added with 100 μL of CellTiter-Glo for each well, and shaken on an orbital shaker for 5 minutes to fully lyse the cells. […]",
  "key": {"[1]": {"settings": "KM12, 72 h, Table 1, 72 hours, read-out: KM-12, IC50"}},
  "note": "Like-named read-outs stand apart in the source and are kept apart here.",
  "data": [
    {"smiles": "CC(C)Oc1ccc(C(=O)Nc2ccc(Oc3cc4cnn5c4c(c3-c3cn[nH]c3)CC5)c(F)c2)c(=O)n1-c1ccc(F)cc1", "note": "[Example 34, N-(4-((5-(1H-pyrazol-4-yl)-6,7-dihydropyrrolo[3,2,1-hi]-indazol-4-yl)oxy)-3-fluorophenyl)-1-(4-fluorophenyl)-6-isopropoxy-2-oxo-12-dihydropyrndine-3-carboxamide]", "values": [
      {"measurement": "IC50", "setting": "KM12, Table 9, read-out: KM12 cell proliferation inhibitory activity (IC50)", "result": 37, "unit": "nM"}
    ]},
    {"smiles": "O=C(Nc1cnn2ccc(N3CCC[C@@H]3c3cc(F)ccc3F)nc12)N1CC[C@H](O)C1", "note": "[LOXO-101, Larotrectinib, reference compound]", "values": [
      {"measurement": "IC50", "setting": "[1]", "result": 8.3, "unit": "nM"}
    ]},
    {"smiles": "Cc1ccc(C(=O)Nc2ccc(Oc3cc4cnn(C)c4cc3-c3cn[nH]c3)c(F)c2)c(=O)n1-c1ccc(F)cc1", "note": "[Merestinib, reference compound]", "values": [
      {"measurement": "IC50", "setting": "[1]", "result": 8.7, "unit": "nM"},
      {"measurement": "IC50", "setting": "KM12, Table 1-1, separate test, read-out: KM-12, IC50", "result": 33, "unit": "nM"},
      {"measurement": "IC50", "setting": "KM12, Table 1-2, separate test, read-out: KM-12, IC50", "result": 59, "unit": "nM"},
      {"measurement": "IC50", "setting": "KM12, Table 1-3, separate test, read-out: KM-12, IC50", "result": 27, "unit": "nM"}
    ]}
  ]
}
